The values below are quoted from earlier work in the PKSmart pharmacokinetics tables (Seal et al. 2025).

The nature of this data set: Lombardo, Berellini, Obach 2018, Drug Metab Dispos 46:1466, doi 10.1124/dmd.118.082966. As to conditions: human; for MRT / Vd / clearance / half-life: in vivo, iv; for fraction unbound: plasma.

Each structure is given as a SMILES string.

`C[N+](C)(C)NCCC(=O)[O-]`: the MRT was 4.3 h, the distribution volume (Vd) was 0.7 L/kg, the clearance is 2.8 mL/min/kg and the half-life is 6.2 h.

As for `C=CCC1(C(C)C#CCC)C(=O)NC(=O)N(C)C1=O` (centres undefined), the MRT was 1.5 h, the distribution volume (Vd) is 1.1 L/kg, the clearance was 12 mL/min/kg and the half-life is 1.6 h. Moreover, the fraction unbound was 0.27.

As for `COc1ccc([C@@H]2CNC(=O)C2)cc1OC1CCCC1`, the MRT is 1.77 h, the Vd is 0.67 L/kg, the clearance was 6.3 mL/min/kg and the half-life was 7 h. Moreover, the fraction unbound was 0.11.

As for `C=CCN(C1=NCCN1)c1c(Cl)cccc1Cl`, the MRT was 3.77 h, the volume of distribution (Vd) is 2.72 L/kg, the clearance was 12 mL/min/kg and the half-life is 3.14 h. The fraction unbound is 0.4.

With `NCCCCC(NC(CCc1ccccc1)C(=O)O)C(=O)N1CCCC1C(=O)O` (centres undefined), the clearance was 1.2 mL/min/kg.

On to `O=c1ccc2ccccc2o1`, for which the MRT was 0.78 h, the Vd is 1.1 L/kg, the clearance was 23.6 mL/min/kg and the half-life is 0.8 h. In addition, the free fraction (fraction unbound) is 0.17.

With `CN1C[C@@H]2c3ccccc3Oc3ccc(Cl)cc3[C@H]2C1`, the MRT is 30.9 h, the Vd was 23 L/kg and the clearance is 12.4 mL/min/kg.

For `CN[C@@H]1[C@@H](O)[C@@H](O[C@@H]2[C@@H](O)[C@H](O[C@H]3OC(CNCCO)=CC[C@H]3N)[C@@H](N)C[C@H]2NC(=O)C(O)CCN)OC[C@]1(C)O` (some centres undefined), the mean residence time MRT is 3.2 h, the Vd was 0.22 L/kg, the clearance was 1.14 mL/min/kg and the half-life was 3.4 h. For the same compound, the fraction unbound was 0.84.

Take `CCOc1ncc(S(=O)(=O)N2CCN(CC)CC2)cc1-c1nc(=O)c2nn(CCOC)c(CC)c2[nH]1`: the MRT is 2.8 h, the Vd is 2.4 L/kg, the clearance was 14.3 mL/min/kg and the half-life is 4 h.

For the compound `CCCCCc1cc(O)c2c(c1)OC(C)(C)[C@@H]1CCC(C)=C[C@@H]21`, the MRT is 46 h, the Vd was 8.9 L/kg, the clearance is 3.2 mL/min/kg and the half-life was 33 h. For the same compound, the fraction unbound is 0.05.

As to `NCCc1ccc(O)c(O)c1`, the mean residence time MRT was 0.19 h, the Vd is 0.74 L/kg, the clearance is 65.9 mL/min/kg and the half-life was 0.42 h. Moreover, the fraction unbound was 0.87.

Take `CC(=O)C[C@H](c1ccc([N+](=O)[O-])cc1)c1c(O)c2ccccc2oc1=O`: the MRT is 3.12 h, the Vd was 0.24 L/kg, the clearance is 1.28 mL/min/kg and the half-life was 7.22 h. The fraction unbound was 0.02.

For the compound `O=c1[nH]cnc2c1ncn2[C@H]1CC[C@@H](CO)O1`, the mean residence time MRT was 1.2 h, the clearance was 11 mL/min/kg and the half-life was 1.4 h.

For `CCCCNc1cc(C(=O)O)cc(S(N)(=O)=O)c1Oc1ccccc1`, the mean residence time MRT was 1.1 h, the distribution volume (Vd) is 0.16 L/kg, the clearance is 2.5 mL/min/kg and the half-life was 1.2 h.

Consider `CCN(CC)CC#CCOC(=O)C(O)(c1ccccc1)C1CCCCC1` (centres undefined), for which the MRT is 2.7 h, the volume of distribution (Vd) was 0.85 L/kg, the clearance is 5.1 mL/min/kg and the half-life was 7.2 h. The unbound share (fraction unbound) was 0.0034.

With `C[C@@H](Oc1cc(-c2cnn(C3CCNCC3)c2)cnc1N)c1c(Cl)ccc(F)c1Cl`, the fraction unbound was 0.09.

As to `CCC(=O)O[C@]1(C(=O)SCF)[C@H](C)C[C@H]2[C@@H]3C[C@H](F)C4=CC(=O)C=C[C@]4(C)[C@@]3(F)[C@@H](O)C[C@@]21C`, the MRT is 3.9 h, the distribution volume (Vd) was 3.6 L/kg, the clearance was 17 mL/min/kg and the half-life was 6 h. Besides, the fraction unbound is 0.1.

`CN[C@@H]1C[C@H]2OC(C)([C@@H]1OC)n1c3ccccc3c3c4c(c5c6ccccc6n2c5c31)C(=O)N[C@@H]4O`: the mean residence time (MRT) was 680 h, the Vd is 0.15 L/kg, the clearance was 0.0037 mL/min/kg and the half-life was 790 h. The fraction unbound is 0.0022.

`O=C(NC1CCN(CCCCC2(C(=O)NCC(F)(F)F)c3ccccc3-c3ccccc32)CC1)c1ccccc1-c1ccc(C(F)(F)F)cc1`: the mean residence time (MRT) is 31.2 h, the Vd is 16.3 L/kg, the clearance is 8.7 mL/min/kg and the half-life is 39.7 h. In addition, the unbound share (fraction unbound) was 0.002.

Regarding `N=C(N)N1CCC[C@@H](CNC(=O)CC(NS(=O)(=O)c2ccc3ccccc3c2)C(=O)N(CC(=O)O)C2CC2)C1` (some centres undefined), the MRT was 0.94 h, the Vd is 0.36 L/kg, the half-life is 1.9 h and the fraction unbound is 0.55.

For `CC(C)(C)c1nc(-c2cccc(NS(=O)(=O)c3c(F)cccc3F)c2F)c(-c2ccnc(N)n2)s1`, the mean residence time (MRT) was 3.8 h, the Vd was 0.65 L/kg, the clearance is 2.86 mL/min/kg and the half-life was 2.6 h. Moreover, the fraction unbound is 0.003.

`Cc1cc2c(OCC(O)CNC(C)C)cccc2[nH]1` (centres undefined): the MRT is 6.21 h, the distribution volume (Vd) is 2.17 L/kg, the clearance was 5.83 mL/min/kg and the half-life is 4.61 h. In addition, the fraction unbound is 0.51.

Regarding `C[C@@H](O)C1C(=O)N2C(C(=O)[O-])=C(S[C@H]3CC[S@@+](O)C3)S[C@@H]12` (some centres undefined), the mean residence time (MRT) is 0.7 h, the Vd was 0.21 L/kg, the clearance was 5.1 mL/min/kg and the half-life was 0.9 h. The unbound share (fraction unbound) is 0.9.

In the case of `NCCCC(O)(P(=O)(O)O)P(=O)(O)O`, the MRT was 2.1 h.

Regarding `OCc1ncc2n1-c1ccc(Cl)cc1C(c1ccccc1F)=NC2`, the MRT is 1.3 h, the Vd is 0.77 L/kg, the clearance was 9.71 mL/min/kg and the half-life was 1.1 h. Further, the fraction unbound is 0.1.

For `CN(CC(O)=NO)C(=O)C1CCCCC1C(=O)O` (centres undefined), the MRT is 2.8 h, the distribution volume (Vd) was 1 L/kg, the clearance was 6.3 mL/min/kg and the half-life is 2.6 h. The free fraction (fraction unbound) is 1.

Turning to `OCCN(CCc1c[nH]c2ccccc12)Cc1ccc(/C=C/C(O)=NO)cc1`, the MRT is 4.78 h, the Vd was 2.17 L/kg, the clearance is 7.6 mL/min/kg and the half-life is 12.4 h. Besides, the fraction unbound is 0.23.

For `CC1=C(CO)C2=C(C)C3(CC3)[C@@](C)(O)C(=O)C2=C1`, the MRT is 0.4 h, the distribution volume (Vd) was 3.1 L/kg, the clearance was 140 mL/min/kg and the half-life was 0.3 h.

Regarding `CC(C)(O)[C@@H]1CC[C@](C)([C@H]2[C@@H](O)C[C@@]3(C)[C@@H]4C[C@H](O[C@@H]5O[C@H](CO)[C@@H](O)[C@H](O)[C@H]5O)[C@H]5C(C)(C)[C@@H](O[C@@H]6OC[C@@H](O)[C@H](O)[C@H]6O)CC[C@@]56C[C@@]46CC[C@]23C)O1`, the mean residence time (MRT) was 2.78 h, the distribution volume (Vd) was 0.12 L/kg, the clearance is 0.74 mL/min/kg and the half-life was 2.65 h. Besides, the fraction unbound is 0.14.

Take `CCCCCCCC(=O)N[C@H](CN1CCCC1)[C@H](O)c1ccc2c(c1)OCCO2`: the clearance is 20.9 mL/min/kg, the half-life is 7.7 h and the fraction unbound was 0.21.

Turning to `CCC#CC[C@H](C)[C@H](O)C#C[C@H]1[C@H]2CC(=CCOCCCC(=O)O)C[C@H]2C[C@H]1O`, the mean residence time (MRT) is 0.59 h, the Vd is 2.4 L/kg, the clearance is 66.2 mL/min/kg and the half-life is 0.41 h.

With `CCC1C(=O)N(C)c2cnc(Nc3ccc(C(=O)NC4CCN(C)CC4)cc3OC)nc2N1C1CCCC1` (centres undefined), the MRT was 31.3 h, the distribution volume (Vd) is 31.2 L/kg, the clearance is 17.1 mL/min/kg and the half-life is 40.1 h.

For `CN[C@@H]1CCc2[nH]c3ccc(C(N)=O)cc3c2C1`, the MRT is 22 h, the Vd was 3.6 L/kg, the clearance is 2.5 mL/min/kg and the half-life is 24 h.

For `O=C(O)c1cc(N=Nc2ccc(O)c(C(=O)O)c2)ccc1O`, the MRT is 0.97 h, the Vd is 0.07 L/kg, the clearance is 1.2 mL/min/kg and the half-life is 0.9 h. The fraction unbound is 0.01.
